Experiments:
[1] = biological target: T1, B2 bradykinin receptor (Homo sapiens, UniProt P30411)
T1 sequence (P30411 whole entry): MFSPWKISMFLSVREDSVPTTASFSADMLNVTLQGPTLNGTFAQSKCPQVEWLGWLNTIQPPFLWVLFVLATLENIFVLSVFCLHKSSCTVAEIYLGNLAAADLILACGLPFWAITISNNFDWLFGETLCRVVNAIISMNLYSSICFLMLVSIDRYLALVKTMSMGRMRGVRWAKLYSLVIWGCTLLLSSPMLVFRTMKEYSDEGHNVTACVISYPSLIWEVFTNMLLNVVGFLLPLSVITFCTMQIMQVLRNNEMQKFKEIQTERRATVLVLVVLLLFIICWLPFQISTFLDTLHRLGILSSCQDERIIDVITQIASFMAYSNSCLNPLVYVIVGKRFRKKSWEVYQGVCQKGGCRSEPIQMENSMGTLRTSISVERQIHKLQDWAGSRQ

[2] = biological target: T2, Gamma-aminobutyric acid receptor subunit alpha-1 (Rattus norvegicus, UniProt P62813); assay type: functional
[3] = biological target: T3, Prostaglandin G/H synthase 1 (Rattus norvegicus, UniProt Q63921); assay type: functional
T3 sequence (Q63921 whole entry): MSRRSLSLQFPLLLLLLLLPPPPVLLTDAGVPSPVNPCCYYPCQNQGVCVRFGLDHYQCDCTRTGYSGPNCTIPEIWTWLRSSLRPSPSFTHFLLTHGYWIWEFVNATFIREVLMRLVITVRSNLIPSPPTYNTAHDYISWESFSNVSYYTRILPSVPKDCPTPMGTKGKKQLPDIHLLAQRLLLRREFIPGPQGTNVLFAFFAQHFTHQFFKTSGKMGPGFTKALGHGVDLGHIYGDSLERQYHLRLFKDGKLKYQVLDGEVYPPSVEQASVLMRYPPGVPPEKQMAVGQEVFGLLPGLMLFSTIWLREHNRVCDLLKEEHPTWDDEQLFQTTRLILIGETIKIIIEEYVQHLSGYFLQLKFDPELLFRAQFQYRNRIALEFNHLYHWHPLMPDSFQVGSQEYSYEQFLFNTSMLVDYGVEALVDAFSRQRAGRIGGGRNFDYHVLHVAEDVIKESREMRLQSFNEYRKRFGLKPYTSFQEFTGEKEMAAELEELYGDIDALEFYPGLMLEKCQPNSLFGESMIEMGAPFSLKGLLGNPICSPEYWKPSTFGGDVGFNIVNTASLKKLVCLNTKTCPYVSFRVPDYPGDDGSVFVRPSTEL

[4] = biological target: T4, Thromboxane A2 receptor (Homo sapiens, UniProt P21731)
T4 sequence (P21731 whole entry): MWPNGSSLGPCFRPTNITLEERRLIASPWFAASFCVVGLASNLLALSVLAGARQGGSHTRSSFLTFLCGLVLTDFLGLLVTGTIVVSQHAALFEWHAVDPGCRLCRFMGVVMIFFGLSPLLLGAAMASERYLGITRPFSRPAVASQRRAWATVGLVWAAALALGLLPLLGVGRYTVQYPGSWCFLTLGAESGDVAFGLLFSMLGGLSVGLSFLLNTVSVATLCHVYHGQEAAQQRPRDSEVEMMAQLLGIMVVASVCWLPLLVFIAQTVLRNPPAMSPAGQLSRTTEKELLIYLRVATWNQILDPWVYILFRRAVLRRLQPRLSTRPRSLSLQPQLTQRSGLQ

[5] = biological target: T2, Gamma-aminobutyric acid receptor subunit alpha-1
[6] = biological target: Sodium-dependent dopamine transporter (Homo sapiens, UniProt Q01959)
[7] = biological target: Neuronal acetylcholine receptor subunit alpha-4 (Homo sapiens, UniProt P43681)
[8] = biological target: T5, Cholecystokinin receptor type A (Homo sapiens, UniProt P32238)
T5 sequence (P32238 whole entry): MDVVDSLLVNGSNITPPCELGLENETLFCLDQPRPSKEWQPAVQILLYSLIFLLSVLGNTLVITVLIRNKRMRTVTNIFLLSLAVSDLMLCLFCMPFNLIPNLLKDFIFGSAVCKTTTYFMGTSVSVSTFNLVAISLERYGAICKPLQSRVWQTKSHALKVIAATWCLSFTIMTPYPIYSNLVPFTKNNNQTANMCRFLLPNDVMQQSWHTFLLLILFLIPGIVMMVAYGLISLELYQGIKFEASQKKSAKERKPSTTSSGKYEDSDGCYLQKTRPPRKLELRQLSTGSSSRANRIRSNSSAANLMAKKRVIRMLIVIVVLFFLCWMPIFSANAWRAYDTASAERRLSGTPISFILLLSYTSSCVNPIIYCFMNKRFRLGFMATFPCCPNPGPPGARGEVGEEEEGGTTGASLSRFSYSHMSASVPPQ

[9] = biological target: Growth hormone secretagogue receptor type 1 (Homo sapiens, UniProt Q92847)
[10] = biological target: Histamine H2 receptor (Homo sapiens, UniProt P25021); assay type: functional, cell-based
[11] = biological target: T6, Alpha-2A adrenergic receptor (Homo sapiens, UniProt P08913); assay type: functional, cell-based
T6 sequence (P08913 whole entry): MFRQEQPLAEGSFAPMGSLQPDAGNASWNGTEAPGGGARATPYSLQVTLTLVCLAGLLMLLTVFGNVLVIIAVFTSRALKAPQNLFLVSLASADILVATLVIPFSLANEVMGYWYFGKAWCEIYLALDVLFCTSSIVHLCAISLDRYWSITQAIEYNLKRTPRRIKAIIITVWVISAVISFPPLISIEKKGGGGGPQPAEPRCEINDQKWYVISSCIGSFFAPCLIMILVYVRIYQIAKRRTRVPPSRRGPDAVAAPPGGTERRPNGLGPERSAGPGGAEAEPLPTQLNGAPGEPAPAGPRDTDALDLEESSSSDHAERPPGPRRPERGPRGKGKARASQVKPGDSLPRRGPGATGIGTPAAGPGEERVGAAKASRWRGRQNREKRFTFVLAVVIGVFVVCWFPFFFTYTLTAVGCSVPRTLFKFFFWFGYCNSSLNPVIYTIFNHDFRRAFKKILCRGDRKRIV

[12] = biological target: 5-hydroxytryptamine receptor 2B (Homo sapiens, UniProt P41595); assay type: functional, cell-based
Further: assay procedure not described here.

T2 sequence (P62813 whole entry): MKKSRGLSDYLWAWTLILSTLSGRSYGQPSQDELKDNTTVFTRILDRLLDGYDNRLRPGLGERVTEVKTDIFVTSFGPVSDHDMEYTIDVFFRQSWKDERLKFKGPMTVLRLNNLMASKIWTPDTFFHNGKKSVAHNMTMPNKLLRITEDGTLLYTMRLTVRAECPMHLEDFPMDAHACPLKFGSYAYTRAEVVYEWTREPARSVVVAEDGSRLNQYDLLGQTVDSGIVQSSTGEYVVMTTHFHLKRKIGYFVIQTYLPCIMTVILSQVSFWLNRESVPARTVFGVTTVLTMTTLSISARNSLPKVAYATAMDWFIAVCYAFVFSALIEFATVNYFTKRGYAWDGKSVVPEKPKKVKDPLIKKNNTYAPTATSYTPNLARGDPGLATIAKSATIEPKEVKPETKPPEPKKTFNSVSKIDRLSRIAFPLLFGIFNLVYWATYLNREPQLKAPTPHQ
Sequence of 5-hydroxytryptamine receptor 2B (P41595 whole entry): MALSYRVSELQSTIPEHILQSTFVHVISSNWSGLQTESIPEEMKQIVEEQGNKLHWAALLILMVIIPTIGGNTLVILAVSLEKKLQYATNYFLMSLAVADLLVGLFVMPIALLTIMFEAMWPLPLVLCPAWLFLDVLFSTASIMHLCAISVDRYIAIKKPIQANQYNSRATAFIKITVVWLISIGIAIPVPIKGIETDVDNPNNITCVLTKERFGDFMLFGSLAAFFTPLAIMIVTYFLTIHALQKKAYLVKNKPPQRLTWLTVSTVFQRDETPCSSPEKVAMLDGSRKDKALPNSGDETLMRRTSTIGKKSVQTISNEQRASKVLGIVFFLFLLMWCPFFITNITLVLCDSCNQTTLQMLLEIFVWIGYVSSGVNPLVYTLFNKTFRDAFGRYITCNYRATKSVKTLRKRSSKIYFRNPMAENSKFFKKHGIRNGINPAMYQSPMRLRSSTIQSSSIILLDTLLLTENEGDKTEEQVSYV
Sequence of Histamine H2 receptor (P25021 whole entry): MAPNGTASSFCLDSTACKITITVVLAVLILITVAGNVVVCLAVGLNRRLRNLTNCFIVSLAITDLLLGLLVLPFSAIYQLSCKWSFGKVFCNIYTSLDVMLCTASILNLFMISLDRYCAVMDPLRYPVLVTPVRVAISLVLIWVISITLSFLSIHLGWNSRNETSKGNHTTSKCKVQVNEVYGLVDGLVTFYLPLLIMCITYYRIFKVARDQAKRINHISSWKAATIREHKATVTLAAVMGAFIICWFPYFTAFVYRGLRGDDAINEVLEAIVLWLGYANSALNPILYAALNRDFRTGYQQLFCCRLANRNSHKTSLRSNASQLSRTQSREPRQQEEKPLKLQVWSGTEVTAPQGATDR
Sequence of Growth hormone secretagogue receptor type 1 (Q92847 whole entry): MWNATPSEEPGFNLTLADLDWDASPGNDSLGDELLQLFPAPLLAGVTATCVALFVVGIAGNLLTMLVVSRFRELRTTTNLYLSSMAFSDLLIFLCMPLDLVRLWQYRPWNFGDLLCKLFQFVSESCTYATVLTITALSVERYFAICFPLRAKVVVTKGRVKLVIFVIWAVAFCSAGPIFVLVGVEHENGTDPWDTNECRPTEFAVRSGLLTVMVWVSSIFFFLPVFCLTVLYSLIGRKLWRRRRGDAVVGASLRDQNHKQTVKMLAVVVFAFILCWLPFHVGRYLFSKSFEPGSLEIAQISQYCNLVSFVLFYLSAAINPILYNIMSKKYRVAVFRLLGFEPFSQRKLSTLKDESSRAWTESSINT
Sequence of Neuronal acetylcholine receptor subunit alpha-4 (P43681 whole entry): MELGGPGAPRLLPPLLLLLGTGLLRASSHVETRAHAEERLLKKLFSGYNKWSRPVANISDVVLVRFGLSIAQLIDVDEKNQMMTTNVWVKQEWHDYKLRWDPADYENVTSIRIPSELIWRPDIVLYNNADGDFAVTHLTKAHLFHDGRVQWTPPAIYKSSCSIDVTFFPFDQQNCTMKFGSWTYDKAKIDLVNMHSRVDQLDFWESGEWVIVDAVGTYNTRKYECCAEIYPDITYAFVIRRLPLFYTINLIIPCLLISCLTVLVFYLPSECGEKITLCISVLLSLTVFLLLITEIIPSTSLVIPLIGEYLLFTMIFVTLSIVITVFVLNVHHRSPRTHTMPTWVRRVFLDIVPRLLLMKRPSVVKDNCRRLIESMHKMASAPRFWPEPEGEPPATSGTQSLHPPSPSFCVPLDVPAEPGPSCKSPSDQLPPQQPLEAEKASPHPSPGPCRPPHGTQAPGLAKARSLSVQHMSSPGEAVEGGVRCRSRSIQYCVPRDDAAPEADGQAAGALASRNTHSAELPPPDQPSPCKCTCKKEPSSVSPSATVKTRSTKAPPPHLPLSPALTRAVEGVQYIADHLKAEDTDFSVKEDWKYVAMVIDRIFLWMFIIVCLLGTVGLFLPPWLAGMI
Sequence of Sodium-dependent dopamine transporter (Q01959 whole entry): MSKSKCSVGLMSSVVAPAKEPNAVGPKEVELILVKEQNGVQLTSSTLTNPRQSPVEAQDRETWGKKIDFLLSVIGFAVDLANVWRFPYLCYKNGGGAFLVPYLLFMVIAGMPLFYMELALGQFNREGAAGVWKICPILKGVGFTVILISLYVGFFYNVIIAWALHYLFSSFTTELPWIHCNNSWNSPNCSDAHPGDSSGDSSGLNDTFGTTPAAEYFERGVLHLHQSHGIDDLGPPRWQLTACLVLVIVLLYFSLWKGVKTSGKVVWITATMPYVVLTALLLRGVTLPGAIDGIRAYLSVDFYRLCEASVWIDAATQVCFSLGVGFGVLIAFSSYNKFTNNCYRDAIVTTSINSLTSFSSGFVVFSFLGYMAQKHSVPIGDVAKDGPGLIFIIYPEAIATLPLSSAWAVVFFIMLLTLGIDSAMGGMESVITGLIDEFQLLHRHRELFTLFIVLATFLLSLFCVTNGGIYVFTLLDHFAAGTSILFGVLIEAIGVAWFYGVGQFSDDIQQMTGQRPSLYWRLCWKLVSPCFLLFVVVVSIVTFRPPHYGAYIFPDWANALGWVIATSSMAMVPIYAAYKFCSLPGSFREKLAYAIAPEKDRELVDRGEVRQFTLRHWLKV

| Structure (SMILES) | AC50 [1] | AC50 [2] | AC50 [3] | AC50 [4] | AC50 [5] | AC50 [6] | AC50 [7] | AC50 [8] | AC50 [9] | AC50 [10] | AC50 [11] | AC50 [12] |
| --- | --- | --- | --- | --- | --- | --- | --- | --- | --- | --- | --- | --- |
| C[C@]1(COc2ccc(N3CCC(Oc4ccc(OC(F)(F)F)cc4)CC3)cc2)Cn2cc([N+](=O)[O-])nc2O1 | > 30 µM | > 10 µM | > 30 µM | > 30 µM | > 30 µM | > 10 µM | > 10 µM | > 30 µM | > 30 µM |  |  |  |
| CC(=O)OCC[N+](C)(C)C [ACETYLCHOLINE] | > 30 µM | > 10 µM | > 30 µM | > 30 µM | > 30 µM | > 30 µM |  | > 30 µM | > 30 µM | > 10 µM | > 10 µM | > 10 µM |
| O=C(Nc1nc(-c2cc(Cl)cs2)c(N2CCN(C3CCCCC3)CC2)s1)c1cnc(N2CCC(C(=O)O)CC2)c(Cl)c1 [AVATROMBOPAG] |  | > 10 µM |  | > 10 µM | > 30 µM | > 10 µM | > 10 µM |  | > 10 µM |  |  |  |
| CC[C@H]1OC(=O)[C@H](C)[C@@H](O[C@H]2C[C@@](C)(OC)[C@@H](O)[C@H](C)O2)[C@H](C)[C@@H](O[C@@H]2O[C@H](C)C[C@H](N(C)C)[C@H]2O)[C@](C)(OC)C[C@@H](C)C(=O)[C@H](C)[C@@H](O)[C@]1(C)O [CLARITHROMYCIN] | > 30 µM |  | > 30 µM | > 30 µM | > 30 µM | > 30 µM | > 30 µM | > 30 µM | > 30 µM | > 30 µM | > 30 µM | > 30 µM |
| CCn1cc(C(=O)O)c(=O)c2cc(F)c(N3CCNCC3)nc21 [ENOXACIN] | > 30 µM | > 10 µM | > 30 µM | 6.06 µM | > 30 µM | > 10 µM | > 10 µM | > 30 µM | > 30 µM | > 10 µM | > 10 µM | > 10 µM |
| COCCCOc1ccnc(C[S+]([O-])c2nc3ccccc3[nH]2)c1C (stereo unspecified) [RABEPRAZOLE] | > 30 µM | > 10 µM | > 30 µM | 11.4 µM | > 30 µM | > 10 µM | > 10 µM | > 30 µM | > 30 µM | > 10 µM | > 10 µM | 12 µM |
